Results published in article PMC9061822, “A novel SRSF3 inhibitor, SFI003, exerts anticancer activity against colorectal cancer by modulating the SRSF3/DHCR24/ROS axis” (Cell Death Discovery, 2022).
Where a SMILES comes first, the peptide text is derived from it. The star is where a group is joined. Cbz = O=C(OCc1ccccc1)*

Key:
[1] = molecular target: T1, SRSF3 (Homo sapiens, UniProt P84103); assay: Western blot of SRSF3 protein in HCT-116 and SW480 cells; type: cell-based; design: endogenous in cells; host or cells: HCT-116 and SW480; conditions: HCT-116 and SW480; 20 μM SFI003 plus 3 μM MLN4924, 50 μM CHQ or 10 μM MG132 for 12 h
T1 sequence (P84103 1-164): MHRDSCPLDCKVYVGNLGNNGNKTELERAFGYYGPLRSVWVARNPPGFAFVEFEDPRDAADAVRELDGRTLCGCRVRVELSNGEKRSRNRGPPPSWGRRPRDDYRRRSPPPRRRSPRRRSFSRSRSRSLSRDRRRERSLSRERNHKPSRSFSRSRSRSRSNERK
Procedure: (§1) After cell lysates were prepared, protein concentrations were determined by a BCA assay (TaKaRa, Kusatsu, Japan). Equal amounts of protein were separated by SDS–PAGE and transferred to polyvinylidene difluoride membranes. After normalization, the blots were probed with appropriate antibodies, as described previously.

[2] = system: HCT-116 and SW480 cells; assay: WB of EMT and apoptosis markers with ROS scavengers; type: cell-based, Human; conditions: 20 μM SFI003 with 5 mM NAC or 100 μM Trolox, 72 h
Procedure: as §1

[3] = system: ROS; assay: Detection of ROS (DCFH-DA) in HCT-116 and SW480 cells; type: cell-based, Human; conditions: 20 μM SFI003 with 5 mM NAC or 100 μM Trolox, 72 h
Procedure: Following treatment with SFI003 or siRNA, the cells were washed with PBS and incubated with DCFH-DA for 20 min at 37 °C. After washing three times, the cells were collected and measured at 488 nm excitation and 525 nm emission by a microplate reader (Tecan, Switzerland) according to the manufacturer’s instructions (Beyotime, Shanghai, China). The protein concentrations were determined by using a BCA assay (TaKaRa, Kusatsu, Japan).

[4] = system: HCT-116 xenografts; assay: HCT-116 xenografts in SCID mice; type: in vivo; conditions: HCT-116 xenografts, 100 mg/kg orally, two weeks
Procedure: To explore the effect of SFI003 on the growth of CRC, approximately 3 × 10^6 HCT-116 cells or 8 × 10^6 SW480 cells were collected and mixed with Matrigel (Corning, NY, USA) at a 1:1 ratio by volume and then injected into the lower back region of mice. When tumors were palpable, mice were randomly divided into four groups. One group received vehicle as a control, while the other three groups were orally administered SFI003 at a dosage of 100 or 200 mg/kg or capecitabine at a dosage of 100 mg/kg for two continuous weeks. The tumor sizes and mouse body weights were monitored every other day. At the end of the experiment, tumors and blood samples were collected for further studies. The tumor size was evaluated according to Eq.: tumor size (mm^3) = (length × width^2) × 0.5.

[5] = molecular target: T1, SRSF3; assay: Biological experimental assays of screened compounds against SRSF3; conditions: screening hit among 22 selected compounds
[6] = system: SW480 cells; assay: MTT assay in SW480 cells; type: cell-based, Human; conditions: Homo sapiens; SW480 cells, 72 h
Procedure: (§2) Human CRC cell lines were purchased from the American Type Culture Collection (VA, USA). HCT-116 cells were cultured in DMEM (HyClone, Utah, USA) containing 10% fetal bovine serum (FBS; Gibco, NY, USA). SW480 cells were cultured in RPMI 1640 medium (HyClone, Utah, USA) containing 10% FBS. All cells were cultured in an incubator (Thermo, CA, USA) at a constant temperature of 37 °C and 5% CO2. N-Acetylcysteine (NAC), Trolox, MLN4924, 5-Fu, and capecitabine were purchased from MedChemExpress LLC (Shanghai, China). MG132 was purchased from Santa Cruz Biotech (CA, USA). Chloroquine (CHQ) was purchased from Sigma (CA, USA). Rapamycin was purchased from Beyotime (Shanghai, China). Primary antibodies against SRSF3 and E-Cadherin were purchased from Abcam (Cambridge, UK). Primary antibodies against N-Cadherin, Caspase 3, DHCR24, CAT, Akt and phospho-Akt (Ser473) were purchased from Cell Signaling Technology (MA, USA). Primary antibodies against β-actin, mTOR, and phospho-mTOR ([…]) were purchased from Beyotime (Shanghai, China). Primary antibody against Vimentin was purchased from Proteintech (Wuhan, China). Primary antibody against Bcl-2 was purchased from Santa Cruz Biotech (CA, USA). Primary antibody against Flag was purchased from MBL Beijing Biotech (Beijing, China). CRC cells were transfected with 100 nM siRNA or treated with various doses of SFI003 for 24 h, 48 h, or 72 h before being subjected to MTT assay as described previously.

[7] = system: HCT-116 cells; assay: MTT assay in HCT-116 cells; type: cell-based, Human; conditions: Homo sapiens; HCT-116 cells, 72 h
Procedure: as §2

## CC(C)C[C@@H](C=O)NC(=O)[C@H](CC(C)C)NC(=O)[C@H](CC(C)C)NC(=O)OCc1ccccc1 [MG132] (Cbz-Leu-Leu-Leu-aldehyde)
[1]
  effect on SFI003-induced SRSF3 degradation: rescued

## NS(=O)(=O)OC[C@@H]1C[C@@H](n2ccc3c(N[C@H]4CCc5ccccc54)ncnc32)C[C@@H]1O [MLN4924]
[1]
  effect on SFI003-induced SRSF3 degradation: rescued

## CC(=O)N[C@@H](CS)C(=O)O [NAC, N-Acetylcysteine]
[2]
  effect on SFI003-induced apoptosis and migration disability: reversed
[3]
  effect on SFI003-induced ROS: significantly reversed

## Cc1c(C)c2c(c(C)c1O)CCC(C)(C(=O)O)O2 (stereo not shown) [Trolox]
[2]
  effect on SFI003-induced apoptosis and migration disability: reversed
[3]
  effect on SFI003-induced ROS: significantly reversed

## CCCCCOC(=O)Nc1nc(=O)n([C@@H]2O[C@H](C)[C@@H](O)[C@H]2O)cc1F [capecitabine, reference compound]
[4]
  number of tumors that disappeared: one

## C/C(=N\Nc1nc(-c2ccc(O)cc2)cs1)C1=CSCN1 [compound 6]
[5]
  inhibitory activity against SRSF3: satisfactory inhibitory activity

## CO[C@H]1C[C@@H]2CC[C@@H](C)[C@@](O)(O2)C(=O)C(=O)N2CCCC[C@H]2C(=O)O[C@H]([C@H](C)C[C@@H]2CC[C@@H](O)[C@H](OC)C2)CC(=O)[C@H](C)/C=C(\C)[C@@H](O)[C@@H](OC)C(=O)[C@H](C)C[C@H](C)/C=C/C=C/C=C/1C [rapamycin, reference compound]
[6]
  IC50: 16.8 µM
[7]
  IC50: 33.2 µM
